One block for each molecule: values may come before it.
Experiments:
[1] = molecular target: Sphingosine 1-phosphate receptor 3 (Homo sapiens, UniProt Q99500); assay: Agonist activity at human S1P3 receptor expressed in CHOK1 cell membranes by [35S]-GTPgammaS binding assay
[2] = species on record: Homo sapiens; assay: Selectivity ratio of EC50 for human S1P3 receptor to EC50 for human S1P1 receptor
[3] = tested on: Serum; assay: Drug metabolism in human serum assessed as monophosphate formation by measuring parent compound half life at 3 mg by 31P NMR method; type: ADME, cell-free
[4] = Chemical stability in aqueous buffer at pH 1.5 at 3 mg measured every 12 mins over 13 hrs by 31P NMR method; type: physicochemical; conditions: pH 1.5, 13 h
[5] = Drug metabolism in mouse J1 cell derived neurons assessed as monophosphate formation at 3 mg after 4 days by mass spectroscopic method; type: ADME, cell-based; conditions: j1 cell-derived neuron, 96 h
[6] = tested on: Serum; assay: Drug metabolism in human serum assessed as monophosphate formation at 3 mg after 12 hrs by mass spectroscopic method; type: ADME, cell-free
[7] = Drug metabolism assessed as carboxypeptidase Y (unknown origin)-mediated monophosphate formation at 3 mg measured every day over 2 weeks by mass spectroscopic method; type: ADME; conditions: human, 336 h
[8] = Chemical stability in aqueous buffer at pH 8 at 3 mg measured every 12 mins over 13 hrs by 31P NMR method; type: physicochemical; conditions: pH 8, 13 h

Sphingosine 1-phosphate receptor 3, sequence (Q99500 whole entry): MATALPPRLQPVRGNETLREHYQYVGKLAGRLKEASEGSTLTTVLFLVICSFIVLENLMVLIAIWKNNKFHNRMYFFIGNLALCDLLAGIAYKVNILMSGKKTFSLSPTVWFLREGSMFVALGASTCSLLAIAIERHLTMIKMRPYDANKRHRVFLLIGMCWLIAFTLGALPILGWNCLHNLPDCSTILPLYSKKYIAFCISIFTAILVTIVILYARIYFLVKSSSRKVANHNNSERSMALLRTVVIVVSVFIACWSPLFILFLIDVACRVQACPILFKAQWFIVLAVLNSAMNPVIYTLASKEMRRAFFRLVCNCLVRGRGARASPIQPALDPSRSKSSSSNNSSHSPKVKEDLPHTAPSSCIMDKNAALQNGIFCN

t1/2 [3]: 14 h
SMILES: Cc1ccc(CCCC(=O)c2ccc(COC[C@@](C)(N)COP(=O)(N[C@@H](C)C(=O)OC(C)C)Oc3ccccc3)cc2)cc1 (some centres undefined)

t1/2 [3]: 14 h
SMILES: COC(=O)[C@H](C)NP(=O)(OC[C@](C)(N)COCc1cc(C)c(C(=O)CCCc2ccc(C)cc2)cc1C)Oc1ccccc1 (some centres undefined)

Stability [4]: Stable
Drug metabolism [5]: Metabolite_Detected
t1/2 [3]: 14 h
Drug metabolism [6]: Metabolite_Detected
Drug metabolism [7]: Metabolite_Detected
Stability [8]: Stable
SMILES: COC(=O)[C@H](C)NP(=O)(OC[C@](C)(N)COCc1ccc(C(=O)CCCc2ccc(C)cc2)cc1)Oc1ccccc1 (some centres undefined)

t1/2 [3]: 14 h
SMILES: Cc1ccc(CCCC(=O)c2ccc(COC[C@@](C)(N)COP(=O)(N[C@@H](C)C(=O)OCc3ccccc3)Oc3ccccc3)cc2)cc1 (some centres undefined)

The next lines start with the molecule.

SMILES: Cc1ccc(CCCC(=O)c2cc(C)c(COC[C@@](C)(N)COP(=O)(O)O)cc2C)cc1
EC50 [1]: > 20 µM
Ratio EC50 [2]: > 3080

SMILES: Cc1ccc(CCCC(=O)c2cc(C)c(COC[C@@](C)(N)COP(=O)(N[C@@H](C)C(=O)OC(C)C)Oc3ccccc3)cc2C)cc1 (some centres undefined)
t1/2 [3]: 14 h

SMILES: Cc1ccc(CCCC(=O)c2ccc(COC[C@@](C)(N)COP(=O)(O)O)cc2)cc1
Ratio EC50 [2]: 29

SMILES: Cc1ccc(CCCC(=O)c2cc(C)c(COC[C@@](C)(N)COP(=O)(N[C@@H](C)C(=O)OCc3ccccc3)Oc3ccccc3)cc2C)cc1 (some centres undefined)
t1/2 [3]: 14 h

From ChEMBL document CHEMBL3997840, “Kinase-independent phosphoramidate S1P1 receptor agonist benzyl ether derivatives” (Bioorg Med Chem Lett, 2017)
